Measured values published in the NIST ThermoML archive (doi:10.1016/j.jct.2010.12.027).
Numbers after ± are expanded uncertainties.

Assays:
[1] = 298.15 K, 101 kPa, Liquid; for viscosity: Capillary tube (Ostwald / Ubbelohde) method; for mass density: Vibrating tube method
[2] = xn = mol fraction of the nth substance listed; settings: 298.15 K, 101 kPa, Liquid; for viscosity: Capillary tube (Ostwald / Ubbelohde) method; for mass density: Vibrating tube method

CCC(C)=O [butanone]
[1]
Settings	mass density [kg/m3]	viscosity [mPa·s]
–	799.87 ± 0.25	0.388 ± 0.008

CCCCCCn1cc[n+](C)c1.F[B-](F)(F)F [1-hexyl-3-methylimidazolium tetrafluoroborate] + CCOC(C)=O
[2]
Settings	mass density [kg/m3]	viscosity [mPa·s]
x1 = 0.0498	925.56 ± 0.64	0.738 ± 0.018
x1 = 0.1	952.69 ± 0.55	1.188 ± 0.029
x1 = 0.2027	997.78 ± 0.52	2.674 ± 0.061
x1 = 0.302	1031.52 ± 0.53	5.221 ± 0.12
x1 = 0.3475	1044.35 ± 0.53	6.846 ± 0.16
x1 = 0.3983	1057.37 ± 0.56	9.328 ± 0.21
x1 = 0.4488	1068.89 ± 0.59	12.31 ± 0.28
x1 = 0.501	1079.8 ± 0.63	16.47 ± 0.38
x1 = 0.5487	1088.62 ± 0.67	21.49 ± 0.51
x1 = 0.6022	1097.8 ± 0.72	28.48 ± 0.68
x1 = 0.7075	1113.73 ± 0.82	48.11 ± 1.2
x1 = 0.8066	1126.46 ± 0.93	80.43 ± 2.2
x1 = 0.8908	1135.69 ± 1	119.88 ± 3.7
x1 = 1	1146.7 ± 1.2	195.37 ± 7.2

CCC(C)=O [butanone] + CCCCCCn1cc[n+](C)c1.F[B-](F)(F)F
[2], x2 = 0
Settings	mass density [kg/m3]	viscosity [mPa·s]
–	799.87 ± 0.25	0.388 ± 0.008

CCOC(C)=O [ethyl acetate] + CCCCCCn1cc[n+](C)c1.F[B-](F)(F)F
[2], x2 = 0
Settings	mass density [kg/m3]	viscosity [mPa·s]
–	894.48 ± 0.25	0.437 ± 0.009

CCCCCCn1cc[n+](C)c1.F[B-](F)(F)F [1-hexyl-3-methylimidazolium tetrafluoroborate] + C1CCOC1
[2]
Settings	mass density [kg/m3]	viscosity [mPa·s]
x1 = 0.0498	922.89 ± 0.76	0.891 ± 0.022
x1 = 0.1008	956.61 ± 0.57	1.564 ± 0.038
x1 = 0.203	1007.44 ± 0.48	3.869 ± 0.088
x1 = 0.2976	1041.06 ± 0.43	7.658 ± 0.17
x1 = 0.3461	1054.83 ± 0.41	10.44 ± 0.23
x1 = 0.3965	1067.37 ± 0.42	13.93 ± 0.31
x1 = 0.4457	1078.09 ± 0.45	18.37 ± 0.42
x1 = 0.5003	1088.63 ± 0.49	24.9 ± 0.58
x1 = 0.5548	1097.81 ± 0.54	33.17 ± 0.78
x1 = 0.6083	1106.02 ± 0.59	42.68 ± 1
x1 = 0.7025	1118.37 ± 0.7	65.77 ± 1.7
x1 = 0.7992	1129 ± 0.84	97.79 ± 2.8
x1 = 0.8925	1137.77 ± 0.98	141.64 ± 4.6
x1 = 1	1146.7 ± 1.2	195.37 ± 7.2

CCCCN [1-butanamine]
[1]
Settings	mass density [kg/m3]	viscosity [mPa·s]
–	732.88 ± 0.26	0.476 ± 0.01

CCCCCCn1cc[n+](C)c1.F[B-](F)(F)F [1-hexyl-3-methylimidazolium tetrafluoroborate] + CCC(C)=O
[2]
Settings	mass density [kg/m3]	viscosity [mPa·s]
x1 = 0.0492	845.71 ± 0.94	0.6 ± 0.014
x1 = 0.0988	889.12 ± 0.71	0.914 ± 0.022
x1 = 0.2011	946.15 ± 0.61	2.059 ± 0.047
x1 = 0.2989	991.57 ± 0.58	4.063 ± 0.092
x1 = 0.3482	1010.53 ± 0.56	5.578 ± 0.13
x1 = 0.3972	1027.28 ± 0.57	7.507 ± 0.17
x1 = 0.4605	1046.8 ± 0.61	11.08 ± 0.25
x1 = 0.4981	1057.05 ± 0.63	13.67 ± 0.32
x1 = 0.55	1070.3 ± 0.67	18.57 ± 0.43
x1 = 0.6057	1082.75 ± 0.71	24.46 ± 0.59
x1 = 0.7054	1102.84 ± 0.81	43.38 ± 1.1
x1 = 0.7955	1119.38 ± 0.91	69.4 ± 1.8
x1 = 0.8931	1132.37 ± 1	110.34 ± 3.3
x1 = 1	1146.7 ± 1.2	195.37 ± 7.2

CCCCCCn1cc[n+](C)c1.F[B-](F)(F)F [1-hexyl-3-methylimidazolium tetrafluoroborate]
[1]
Settings	mass density [kg/m3]	viscosity [mPa·s]
–	1146.7 ± 1.2	195.37 ± 7.2

C1CCOC1 [tetrahydrofuran] + CCCCCCn1cc[n+](C)c1.F[B-](F)(F)F
[2], x2 = 0
Settings	mass density [kg/m3]	viscosity [mPa·s]
–	882.13 ± 0.16	0.475 ± 0.01

C1CCOC1 [tetrahydrofuran]
[1]
Settings	mass density [kg/m3]	viscosity [mPa·s]
–	882.13 ± 0.16	0.475 ± 0.01

CCOC(C)=O [ethyl acetate]
[1]
Settings	mass density [kg/m3]	viscosity [mPa·s]
–	894.48 ± 0.25	0.437 ± 0.009

CCCCCCn1cc[n+](C)c1.F[B-](F)(F)F [1-hexyl-3-methylimidazolium tetrafluoroborate] + CCCCN
[2], x1 = 1
Settings	mass density [kg/m3]	viscosity [mPa·s]
–	1146.7 ± 1.2	195.37 ± 7.2

CCCCN [1-butanamine] + CCCCCCn1cc[n+](C)c1.F[B-](F)(F)F
[2]
Settings	mass density [kg/m3]	viscosity [mPa·s]
x2 = 0	732.88 ± 0.26	0.476 ± 0.01
x2 = 0.0492	778.02 ± 0.81	0.889 ± 0.021
x2 = 0.0994	809.01 ± 0.79	1.433 ± 0.034
x2 = 0.1997	888.25 ± 0.74	3.137 ± 0.072
x2 = 0.3002	943.91 ± 0.65	6.183 ± 0.14
x2 = 0.3525	968.66 ± 0.6	8.532 ± 0.19
x2 = 0.4013	989.49 ± 0.6	11.16 ± 0.26
x2 = 0.4492	1008.25 ± 0.6	14.68 ± 0.34
x2 = 0.5037	1027.64 ± 0.63	19.56 ± 0.46
x2 = 0.5524	1043.6 ± 0.67	25.39 ± 0.6
x2 = 0.6009	1058.22 ± 0.7	32.05 ± 0.77
x2 = 0.7036	1085.8 ± 0.8	53.63 ± 1.3
x2 = 0.7873	1105.23 ± 0.89	76.62 ± 2
x2 = 0.8787	1124.35 ± 1	117.48 ± 3.6
